From article PMC3885546, “Structural Determinants of the 5′-Methylthioinosine Specificity of Plasmodium Purine Nucleoside Phosphorylase” (PLoS ONE, 2014)
Numbering of substitutions follows the chain as printed. Like-named read-outs stand apart in the source and are kept apart here.

Key:
Test in all cases: Substrate kinetics, coupled assay
Type in all cases: biochemical
PfPNP Val66Phe = biological target: T1, PfPNP Val66Phe (Plasmodium falciparum, UniProt Q8I3X4, V66F); parameters: key to Km / kcat / kcat/Km: (-): Activity not detected under the experimental conditions; settings: for Km / kcat / kcat/Km: substrate = label
T1 construct: made in house; host or cells: Escherichia coli Top 10
T1 sequence (Q8I3X4 1-245 V66F): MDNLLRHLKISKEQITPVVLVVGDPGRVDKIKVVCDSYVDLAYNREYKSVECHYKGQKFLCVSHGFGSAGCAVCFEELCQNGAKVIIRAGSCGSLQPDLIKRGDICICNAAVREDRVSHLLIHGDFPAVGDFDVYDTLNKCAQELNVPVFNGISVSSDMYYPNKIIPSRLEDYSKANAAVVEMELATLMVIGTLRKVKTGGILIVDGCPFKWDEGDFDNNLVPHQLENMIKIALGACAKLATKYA
Experimental: (§1) Kinetic assays were completed in 50 mM KH2PO4 at pH 7.4 measuring phosphorylysis of inosine or MTI by PNP in a coupled reaction with 60 milliunits/ml xanthine oxidase to convert hypoxanthine to uric acid. Formation of uric acid was measured at 293 nm wavelength (E293 = 12.9 mM^−1 cm^−1), [20]. In cases where activity for MTI was low, increased protein concentration (10 µg/ml) was used to check enzyme function. Assays were performed with excess substrate in the presence of inhibitors. Inhibition studies measured both initial (Ki) and slow onset inhibition (Ki*) for inhibitors. The initial onset inhibition was analyzed by using the following equation: ν ο = (k cat×S)/(K m(1+I/Ki)+S), ν ο is the steady state rate, k cat catalytic rate, S is substrate concentration, Km is Michealis constant for inosine, I is inhibitor concentration, and Ki is the equilibrium dissociation constant.

PfPNP His7Ala = biological target: T2, PfPNP His7Ala (Plasmodium falciparum, UniProt Q8I3X4, H7A); settings: for Km / kcat: substrate = label
T2 construct: made in house; host or cells: Escherichia coli Top 10
T2 sequence (Q8I3X4 1-245 H7A): T1 sequence (Q8I3X4 1-245 V66F) with H7A, F66V
Experimental: as §1

PfPNP Tyr47Ala = biological target: T3, PfPNP Tyr47Ala (Plasmodium falciparum, UniProt Q8I3X4, Y47A); settings: for Km / kcat: substrate = label
T3 construct: made in house; host or cells: Escherichia coli Top 10
T3 sequence (Q8I3X4 1-245 Y47A): T1 sequence (Q8I3X4 1-245 V66F) with Y47A, F66V
Experimental: as §1

PfPNP V66I/V73I/Y160F = biological target: T4, PfPNP V66I/V73I/Y160F (Plasmodium falciparum, UniProt Q8I3X4, V66I/V73I/Y160F); settings: for Ino/MTI kcat/Km Ratio / Km / kcat: V66I/V73I/Y160F PfPNP; for Km / kcat: substrate = label
T4 construct: made in house; host or cells: Escherichia coli Top 10
T4 sequence (Q8I3X4 1-245 V66I/V73I/Y160F): T1 sequence (Q8I3X4 1-245 V66F) with F66I, V73I, Y160F
Experimental: as §1

PfPNP Val66Ala = biological target: T5, PfPNP Val66Ala (Plasmodium falciparum, UniProt Q8I3X4, V66A); settings: for Km / kcat: substrate = label
T5 construct: made in house; host or cells: Escherichia coli Top 10
T5 sequence (Q8I3X4 1-245 V66A): T1 sequence (Q8I3X4 1-245 V66F) with F66A
Experimental: as §1

PfPNP Val66Ile/Val73Ile = biological target: T6, PfPNP Val66Ile/Val73Ile (Plasmodium falciparum, UniProt Q8I3X4, V66I/V73I); settings: for Km / kcat: substrate = label
T6 construct: made in house; host or cells: Escherichia coli Top 10
T6 sequence (Q8I3X4 1-245 V66I/V73I): T1 sequence (Q8I3X4 1-245 V66F) with F66I, V73I
Experimental: as §1

PfPNP Val66Ser = biological target: T7, PfPNP Val66Ser (Plasmodium falciparum, UniProt Q8I3X4, V66S); settings: for Km / kcat: substrate = label
T7 construct: made in house; host or cells: Escherichia coli Top 10
T7 sequence (Q8I3X4 1-245 V66S): T1 sequence (Q8I3X4 1-245 V66F) with F66S
Experimental: as §1

[1] = V66I:V73I:Y160F PfPNP versus wild type

| Compound | kcat (PfPNP Val66Phe) | Km (PfPNP His7Ala) [µM] | kcat (PfPNP His7Ala) [s⁻¹] | Km (PfPNP Tyr47Ala) [µM] | kcat (PfPNP Tyr47Ala) [s⁻¹] | Ino/MTI kcat/Km Ratio (PfPNP V66I/V73I/Y160F) | Km (PfPNP V66I/V73I/Y160F) [µM] | kcat (PfPNP V66I/V73I/Y160F) [s⁻¹] | Km (PfPNP Val66Ala) [µM] | kcat (PfPNP Val66Ala) [s⁻¹] | Km (PfPNP Val66Ile/Val73Ile) [µM] | kcat (PfPNP Val66Ile/Val73Ile) [s⁻¹] | Km (PfPNP Val66Ser) [µM] | kcat (PfPNP Val66Ser) [s⁻¹] | also measured |
| --- | --- | --- | --- | --- | --- | --- | --- | --- | --- | --- | --- | --- | --- | --- | --- |
| 5′-methylthioinosine | (-) | 2.6 ± 2 | 0.29 ± 0.21 | 960 | 0.02 ± 0 | 160 | 18 ± 6 | 0.01 ± 0.00 | 0.3 ± 0.4 | 0.12 ± 0.04 | 15 ± 5 | 0.91 ± 0.20 | 0.7 ± 0.7 | 0.21 ± 0.05 | Km (PfPNP Val66Phe): (-); kcat/Km (PfPNP Val66Phe): (-); kcat/Km (PfPNP Val66Phe; listed as MTI): no detectable activity; decrease in kcat (PfPNP V66I/V73I/Y160F; [1]): 83 fold; increase in Km (PfPNP V66I/V73I/Y160F; [1]): 2 fold |
| OC[C@H]1O[C@@H](n2cnc3c(O)ncnc32)[C@H](O)[C@@H]1O [Inosine, inosine] | 5.7 ± 3.4 s⁻¹ | 45 ± 7 | 1.1 ± 0.5 | 200 | 0.04 ± 0.00 | 160 | 4 ± 1.8 | 0.36 ± 0.23 | 13 ± 10 | 2.4 ± 0.6 | 28 ± 11 | 4.6 ± 0.6 | 78 ± 4 | 1.4 ± 1.7 | Km greater than for wildtype PfPNP (PfPNP Val66Phe): ~100 fold; Km (PfPNP Val66Phe; read-out: Km): 1500 ± 410 µM; Ino/MTI kcat/Km Ratio (PfPNP His7Ala): 2.2; Ino/MTI kcat/Km Ratio (PfPNP Tyr47Ala): 9.3; Ino/MTI kcat/Km Ratio (PfPNP Val66Ala): 0.5; Ino/MTI kcat/Km Ratio (PfPNP Val66Ile/Val73Ile): 2.7; Ino/MTI kcat/Km Ratio (PfPNP Val66Ser): 0.06 |
